Our source for the IC50 values is patent US8273900B2, “Organic compounds” (Novartis AG, priority 2008, dated 2012).

This assay deals with T1, human recombinant CRF-1 receptor (Homo sapiens, UniProt P34998).
T1 construct: expressed in transfected cells; host or cells: CHO cells (G418-selected)
T1 sequence (P34998 24-415): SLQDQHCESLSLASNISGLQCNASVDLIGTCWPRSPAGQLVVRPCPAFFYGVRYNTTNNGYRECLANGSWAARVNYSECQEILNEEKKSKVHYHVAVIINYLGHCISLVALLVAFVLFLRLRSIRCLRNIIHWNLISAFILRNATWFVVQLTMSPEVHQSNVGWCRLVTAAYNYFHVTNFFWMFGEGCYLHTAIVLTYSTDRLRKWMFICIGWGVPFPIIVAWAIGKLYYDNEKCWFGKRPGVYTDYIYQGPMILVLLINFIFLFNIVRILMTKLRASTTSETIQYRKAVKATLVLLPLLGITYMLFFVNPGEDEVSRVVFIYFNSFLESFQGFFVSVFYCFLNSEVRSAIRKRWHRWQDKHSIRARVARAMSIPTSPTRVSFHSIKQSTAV
The assay can be described thus: CRF-1 receptor antagonism, HTRF cAMP assay in CHO cells in the presence of 1 nM CRF. As to conditions: CHO cells expressing human recombinant CRF-1; inhibition of the effect of 1 nM CRF on cAMP. Type of assay: cell-based. Here is the method: The CRF-1 or CRF-2α receptor antagonistic activity of the agents of the invention has been determined in vitro in the following assay:
Chinese hamster ovary (CHO) cells expressing either the human recombinant CRF-1 or CRF-2a receptors (Chen et al., Proc Natl Acad Sci USA 90, 8967-8971, 1993; Liaw et al., Endocrinology 137, 72-77, 1996) are propagated in Dulbecco's modified Eagle medium supplemented with 10% foetal calf serum, non-essential amino acids, 100 U/ml penicillin, 100 mg/l streptomycin and 1 g/l geneticin (G418). For cyclic AMP determinations the Homogeneous Time-Resolved Fluoresce (HTRF) cAMP dynamic 2 kit (Cisbio International, France) was used as per manufacturers' instructions. CHO cells, previously cryopreserved, were thawed, centrifuged for 7 mins at 1200 rpm and resuspended in serum free media, then pipetted out onto clear bottomed black tissue culture treated 384-well microtitre plates (Corning Inc, US) at 2,000 cells per well. Compounds of the invention, prepared in DMSO, and subsequently diluted 50 fold in assay buffer (1× Hanks balanced salt solution, 0.2% (w/v) bovine serum albumin, 1.7 mM isobutylmethylxanthine and 10 mM Hepes, pH 7.4) are then added onto the cell containing plate where a further 2 fold dilution is performed and incubated for 15 min. Following incubation, buffer containing a 5 times final concentration of agonist is added to the plate and incubated for 30 min. Finally, d2 dye labelled cAMP and cryptate labeled anti-cAMP antibody, both made in lysis buffer, are added to the plate followed by a settling period of 1 hour. During the settling period cAMP produced by the cells competes with the d2 labelled cAMP for the anti-cAMP cryptate. The plate is read on the Pherastar (BMG, Germany). Increasing levels of endogenous cAMP produced by cells can be followed by a decrease of fluorescent signal and vice versa. Values represented by a change in arbitrary fluorescence units are converted into cAMP concentrations by use of a standard curve the reagents for which are supplied with the kit. Antagonist dose response curves (1 nM-30 μM) are constructed in the presence of 1 nM CRF. IC50 values of antagonists are calculated by fitting the percent inhibition of the effect of CRF by increasing concentrations of the antagonists. The fit is performed using the nonlinear logistic function of the Activitybase software package v 5.4.5.27 (IDBS, UK).
As to `Cc1cc(NC[C@H]2CC[C@H](NC(=O)c3cc(C(F)(F)F)ccc3Cl)CC2)n(-c2ccc(Cl)cc2)n1` [Example 19.116, Trans-2-Chloro-N-(4-{[2-(4-chloro-phenyl)-5-methyl-2H-pyrazol-3-ylamino]-methyl}-cyclohexyl)-5-trifluoromethyl-benzamide], the IC50 (as a rule, the midpoint of a concentration-inhibition curve) is 59 nM.
To `O=C(N[C@H]1CC[C@H](CNc2ccccc2)CC1)c1cccc(Cl)c1` [Example 12, Trans-3-Chloro-N-(4-phenylaminomethyl-cyclohexyl)-benzamide] belongs 137 nM; to `O=C(N[C@H]1CC[C@H](CNc2[nH]ncc2-c2cccnc2)CC1)c1cc(C(F)(F)F)ccc1Cl` [Example 19.103, Trans-2-Chloro-N-{4-[(4-pyridin-3-yl-2H-pyrazol-3-ylamino)-methyl]-cyclohexyl}-5-trifluoromethyl-benzamide], 37 nM.
Turning to `O=C(N[C@H]1CC[C@H](CNc2n[nH]c3cccnc23)CC1)c1cc(C(F)(F)F)ccc1Cl` [Example 19.93, Trans-N-(4-((1H-pyrazolo [4,3-b]pyridin-3-ylamino)methyl)cyclohexyl)-2-chloro-5-(trifluoromethyl) benzamide], the IC50 amounted to 69 nM.
To `Cc1cc(NC[C@H]2CC[C@H](NC(=O)c3cc(C(F)(F)F)ccc3Cl)CC2)ncc1F` [Example 19.26, Trans-2-chloro-N-(4-((5-fluoro-4-methylpyridin-2-ylamino)methyl)cyclohexyl)-5-(trifluoromethyl) benzamide] belongs 13 nM; to `COc1ncc(C)cc1NC[C@H]1CC[C@H](NC(=O)c2cc(C(F)(F)F)ccc2Cl)CC1` [Example 19.56, Trans-2-chloro-N-(4-((2-methoxy-5-methylpyridin-3-ylamino)methyl)cyclohexyl)-5-(trifluoromethyl) benzamide], 84 nM.
As for `Cc1n[nH]c(NC[C@H]2CC[C@H](NC(=O)c3cc(C(F)(F)F)ccc3Cl)CC2)c1-c1ccccc1` [Example 19.71, Trans-2-chloro-N-(4-((3-methyl-4-phenyl-1H-pyrazol-5-ylamino)methyl)cyclohexyl)-5-(trifluoromethyl) benzamide], the figure is 140 nM; as for `Cc1ncc(Cl)cc1C(=O)N[C@H]1CC[C@H](CNc2n[nH]c3c2CCCC3)CC1` [Example 19.55, Trans-5-chloro-2-methyl-N-(4-((4,5,6,7-tetrahydro-1H-indazol-3-ylamino)methyl)cyclohexyl) nicotinamide], 143 nM; as for `O=C(N[C@H]1CC[C@H](CNc2nnnn2-c2ccccc2)CC1)c1cc(C(F)(F)F)ccc1Cl` [Example 19.100, Trans-2-Chloro-N-{4-[(1-phenyl-1H-tetrazol-5-ylamino)-methyl]-cyclohexyl}-5-trifluoromethyl-benzamide], 29 nM.
As to `Cc1nc(NC[C@H]2CC[C@H](NC(=O)c3cc(Cl)cnc3Cl)CC2)sc1C` [Example 1.18, Trans-2,5-Dichloro-N-{4-[(4,5-dimethyl-thiazol-2-ylamino)-methyl]-cyclohexyl}-nicotinamide], the IC50 was 31 nM.
`O=C(N[C@H]1CC[C@H](CNc2n[nH]c3c2CCCC3)CC1)c1cc(C(F)(F)F)ccc1Cl` [Example 19.49, Trans-2-chloro-N-(4-((4,5,6,7-tetrahydro-1H-indazol-3-ylamino)methyl)cyclohexyl)-5-(trifluoromethyl) benzamide]: the IC50 was found to be 31 nM.
Regarding `Cc1ncc(NC[C@H]2CC[C@H](NC(=O)c3cc(C(F)(F)F)ccc3Cl)CC2)cc1Cl` [Example 19.75, Trans-2-chloro-N-(4-((5-chloro-6-methylpyridin-3-ylamino)methyl)cyclohexyl)-5-(trifluoromethyl) benzamide], the IC50 was 54 nM.
For `O=C(N[C@H]1CC[C@H](CNc2n[nH]c3ccc(Cl)cc23)CC1)c1cc(C(F)(F)F)ccc1Cl` [Example 19.66, Trans-2-chloro-N-(4-((5-chloro-1H-indazol-3-ylamino)methyl)cyclohexyl)-5-(trifluoromethyl) benzamide], the IC50 was determined as 62 nM.
To `O=C(N[C@H]1CC[C@H](CNc2n[nH]c3cccc(F)c23)CC1)c1cc(C(F)(F)F)ccc1Cl` [Example 19.63, Trans-2-chloro-N-(4-((4-fluoro-1H-indazol-3-ylamino)methyl)cyclohexyl)-5-(trifluoromethyl) benzamide] belongs 17 nM.
As for `Cc1nc(C)n(C[C@H]2CC[C@H](NC(=O)c3cc(C(F)(F)F)ccc3Cl)CC2)n1` [Example 21.4, 2-Chloro-N-[4-(3,5-dimethyl-[1,2,4]triazol-1-ylmethyl)-cyclohexyl]-5-trifluoromethyl-benzamide], the figure is 299 nM; as for `COc1ncc(Cl)cc1NC[C@H]1CC[C@H](NC(=O)c2cc(C(F)(F)F)ccc2Cl)CC1` [Example 19.113, Trans-2-Chloro-N-{4-[(5-chloro-2-methoxy-pyridin-3-ylamino)-methyl]-cyclohexyl}-5-trifluoromethyl-benzamide], 153 nM; as for `Cc1ncc(Cl)cc1C(=O)N[C@H]1CC[C@H](CNc2ccc(F)cn2)CC1` [Example 19.108, Trans-5-Chloro-N-{4-[(5-fluoro-pyridin-2-ylamino)-methyl]-cyclohexyl}-2-methyl-nicotinamide], 72 nM.
Regarding `O=C(N[C@H]1CC[C@H](CNc2n[nH]cc2-c2ccc(Cl)cc2)CC1)c1cc(C(F)(F)F)ccc1Cl` [Example 19.80, Trans-2-chloro-N-(4-((4-(4-chlorophenyl)-1H-pyrazol-3-ylamino)methyl)cyclohexyl)-5-(trifluoromethyl) benzamide], the IC50 was determined as 15 nM.
In the case of `O=C(O)c1ccc(NC[C@H]2CC[C@H](NC(=O)c3cc(C(F)(F)F)ccc3Cl)CC2)nc1` [Example 1.33, Trans-6-{[4-(2-Chloro-5-trifluoromethyl-benzoylamino)-cyclohexylmethyl]-amino}-nicotinic acid], the IC50 came out at 6420 nM.
As for `Cc1ncc(Cl)cc1C(=O)N[C@H]1CC[C@H](CNc2cc(C(F)(F)F)n[nH]2)CC1` [Example 19.107, Trans-5-Chloro-2-methyl-N-{4-[(5-trifluoromethyl-2H-pyrazol-3-ylamino)-methyl]-cyclohexyl}-nicotinamide], the figure is 118 nM.
As to `COc1ccc(Cl)c(NC[C@H]2CC[C@H](NC(=O)c3cc(C(F)(F)F)ccc3Cl)CC2)n1` [Example 19.98, Trans-2-Chloro-N-{4-[(3-chloro-6-methoxy-pyridin-2-ylamino)-methyl]-cyclohexyl}-5-trifluoromethyl-benzamide], the IC50 came to 52 nM.
Take `O=C(N[C@H]1CC[C@H](CNc2cccc3ncccc23)CC1)c1cccc(C(F)(F)F)c1` [Example 13, Trans-N-[4-(Quinolin-5-ylaminomethyl)-cyclohexyl]-3-trifluoromethyl-benzamide]: the IC50 worked out at 70 nM.
Turning to `CC(Nc1ccccc1)[C@H]1CC[C@H](NC(=O)c2cc(C(F)(F)F)ccc2Cl)CC1` (stereo partly drawn) [Example 15, Trans-2-Chloro-N-[4-(1RS-phenylamino-ethyl)-cyclohexyl]-5-trifluoromethyl-benzamide], the IC50 is 108 nM.
To `Cc1cc(C)n(C[C@H]2CC[C@H](NC(=O)c3cc(C(F)(F)F)ccc3Cl)CC2)n1` [Example 7, Trans-2-chloro-N-[4-(3,5-dimethyl-pyrazol-1-ylmethyl)-cyclohexyl]-5-trifluoromethyl-benzamide] belongs 22 nM.
As for `Cc1ccc2[nH]nc(NC[C@H]3CC[C@H](NC(=O)c4cc(C(F)(F)F)ccc4Cl)CC3)c2c1` [Example 19.59, Trans-2-chloro-N-(4-((5-methyl-1H-indazol-3-ylamino)methyl)cyclohexyl)-5-(trifluoromethyl) benzamide], the figure is 87 nM; as for `O=C(N[C@H]1CC[C@H](Cn2ccc(N3CCNC3=O)n2)CC1)c1cc(C(F)(F)F)ccc1Cl` [Example 6, Trans-2-chloro-N-(4-((3-(2-oxoimidazolidin-1-yl)-1H-pyrazol-1-yl)methyl)cyclohexyl)-5-(trifluoromethyl)benzamide], 90 nM.
